Reference: ChEMBL document CHEMBL4396932, “Rasagiline derivatives combined with histamine H3 receptor properties” (Bioorg Med Chem Lett, 2019)
pIC50, pKi: −log10 of the molar value.

How the values were obtained:
[1] = biological target: T1, Amine oxidase [flavin-containing] B (Rattus norvegicus, UniProt P19643); test: Inhibition of rat brain MAO-B using [14C]-phenylethylamine as substrate preincubated for 60 mins followed by substrate addition and measured after 20 mins by liquid scintillation counting method
T1 sequence (P19643 whole entry): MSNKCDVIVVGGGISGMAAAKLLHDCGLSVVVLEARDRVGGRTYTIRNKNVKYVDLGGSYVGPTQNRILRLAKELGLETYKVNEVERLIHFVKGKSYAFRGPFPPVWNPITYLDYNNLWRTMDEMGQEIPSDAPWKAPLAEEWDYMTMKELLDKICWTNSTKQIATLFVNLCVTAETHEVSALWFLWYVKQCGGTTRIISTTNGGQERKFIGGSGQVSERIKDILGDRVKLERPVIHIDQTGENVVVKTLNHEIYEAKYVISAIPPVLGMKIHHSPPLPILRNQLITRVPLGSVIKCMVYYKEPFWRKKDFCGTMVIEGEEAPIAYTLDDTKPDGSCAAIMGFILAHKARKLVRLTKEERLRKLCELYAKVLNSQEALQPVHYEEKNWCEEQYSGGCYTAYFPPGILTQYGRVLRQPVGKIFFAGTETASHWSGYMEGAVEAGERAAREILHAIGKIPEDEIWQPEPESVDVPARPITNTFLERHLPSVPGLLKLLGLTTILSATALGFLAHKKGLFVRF

[2] = biological target: T2, Amine oxidase [flavin-containing] A (Homo sapiens, UniProt P21397); test: Inhibition of human recombinant MAO-A using kynuramine as substrate preincubated for 60 mins followed by substrate addition by discontinuous fluorimetric analysis
T2 sequence (P21397 whole entry): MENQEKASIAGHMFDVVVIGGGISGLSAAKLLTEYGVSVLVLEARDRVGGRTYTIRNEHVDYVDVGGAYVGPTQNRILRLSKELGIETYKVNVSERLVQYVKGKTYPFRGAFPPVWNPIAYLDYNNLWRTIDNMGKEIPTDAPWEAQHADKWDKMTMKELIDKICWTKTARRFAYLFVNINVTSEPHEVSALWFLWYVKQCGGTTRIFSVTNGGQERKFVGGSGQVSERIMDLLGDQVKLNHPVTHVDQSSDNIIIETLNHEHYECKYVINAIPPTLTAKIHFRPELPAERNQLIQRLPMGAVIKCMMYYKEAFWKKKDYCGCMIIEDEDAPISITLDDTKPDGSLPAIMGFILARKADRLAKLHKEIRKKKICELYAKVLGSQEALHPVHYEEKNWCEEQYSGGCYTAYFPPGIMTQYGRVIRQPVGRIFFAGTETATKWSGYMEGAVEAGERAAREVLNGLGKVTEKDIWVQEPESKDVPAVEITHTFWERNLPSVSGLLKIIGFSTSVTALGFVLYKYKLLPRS

[3] = Cytotoxicity against human SH-SY5Y cells assessed as cell viability at 1 uM measured after 24 hrs by resazurin dye based fluorescence assay relative to control; details: read-out: Activity
[4] = biological target: T3, Amine oxidase [flavin-containing] B (Homo sapiens, UniProt P27338); test: Inhibition of human recombinant MAO-B using kynuramine as substrate by discontinuous fluorimetric analysis
T3 sequence (P27338 whole entry): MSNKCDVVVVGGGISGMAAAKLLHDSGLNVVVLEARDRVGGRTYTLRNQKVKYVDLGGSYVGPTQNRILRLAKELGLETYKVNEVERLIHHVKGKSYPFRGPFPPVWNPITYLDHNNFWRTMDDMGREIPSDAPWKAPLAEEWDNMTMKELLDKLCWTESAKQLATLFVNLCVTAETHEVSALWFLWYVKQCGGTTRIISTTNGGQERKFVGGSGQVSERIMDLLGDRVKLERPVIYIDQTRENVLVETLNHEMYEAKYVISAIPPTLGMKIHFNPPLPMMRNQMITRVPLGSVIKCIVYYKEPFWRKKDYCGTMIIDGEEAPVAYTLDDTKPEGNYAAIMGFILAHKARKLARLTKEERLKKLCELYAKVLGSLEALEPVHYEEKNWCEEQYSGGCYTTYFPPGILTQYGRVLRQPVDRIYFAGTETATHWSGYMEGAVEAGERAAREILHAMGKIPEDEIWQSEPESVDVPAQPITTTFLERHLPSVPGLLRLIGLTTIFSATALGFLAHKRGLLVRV

Histamine H3 receptor = Histamine H3 receptor (Homo sapiens, UniProt Q9Y5N1); test: Displacement of [3H] N-alpha methylhistamine from human recombinant H3 receptor expressed in HEK293 cells incubated for 90 min; type: cell-based; details: for pKi: read-out: Ki; for Ki: read-out: pKi (converted)
Sequence of Histamine H3 receptor (Q9Y5N1 whole entry): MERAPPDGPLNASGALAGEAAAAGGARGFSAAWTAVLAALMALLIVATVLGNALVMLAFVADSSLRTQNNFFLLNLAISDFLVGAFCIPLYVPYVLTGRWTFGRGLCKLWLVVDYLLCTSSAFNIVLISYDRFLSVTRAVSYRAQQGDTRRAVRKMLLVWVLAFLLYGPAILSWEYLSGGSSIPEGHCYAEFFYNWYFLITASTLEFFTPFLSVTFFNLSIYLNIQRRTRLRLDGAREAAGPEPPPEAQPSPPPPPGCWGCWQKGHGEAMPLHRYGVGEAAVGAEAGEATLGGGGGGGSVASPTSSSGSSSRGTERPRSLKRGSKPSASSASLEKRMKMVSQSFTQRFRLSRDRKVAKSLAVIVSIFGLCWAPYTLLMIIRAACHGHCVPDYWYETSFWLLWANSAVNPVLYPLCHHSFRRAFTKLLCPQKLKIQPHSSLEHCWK

Homo sapiens [5] = species: Homo sapiens; test: Selectivity index, ratio of IC50 for human recombinant MAO-A using kynuramine as substrate preincubated for 60 mins followed by substrate addition to IC50 for human recombinant MAO-B using kynuramine as substrate preincubated for 60 mins followed by substrate addition
[6] = biological target: T2, Amine oxidase [flavin-containing] A; test: Inhibition of human recombinant MAO-A using kynuramine as substrate by discontinuous fluorimetric analysis
[7] = Cytotoxicity against human SH-SY5Y cells assessed as cell viability at 10 uM measured after 24 hrs by resazurin dye based fluorescence assay relative to control; details: read-out: Activity
[8] = biological target: T3, Amine oxidase [flavin-containing] B; test: Inhibition of human recombinant MAO-B using kynuramine as substrate preincubated for 60 mins followed by substrate addition by discontinuous fluorimetric analysis
Homo sapiens [9] = species: Homo sapiens; test: Selectivity index, ratio of IC50 for human recombinant MAO-A to IC50 for human recombinant MAO-B using kynuramine as substrate
[10] = biological target: Cholinesterase (Equus caballus) (UniProt P81908); test: Inhibition of equine serum BuChE at 10 uM using acetylthiocholine iodide as substrate preincubated for 30 mins followed by substrate addition and measured every 40 secs for 30 mins by Ellman's method relative to control
Sequence of Cholinesterase (Equus caballus) (P81908 whole entry): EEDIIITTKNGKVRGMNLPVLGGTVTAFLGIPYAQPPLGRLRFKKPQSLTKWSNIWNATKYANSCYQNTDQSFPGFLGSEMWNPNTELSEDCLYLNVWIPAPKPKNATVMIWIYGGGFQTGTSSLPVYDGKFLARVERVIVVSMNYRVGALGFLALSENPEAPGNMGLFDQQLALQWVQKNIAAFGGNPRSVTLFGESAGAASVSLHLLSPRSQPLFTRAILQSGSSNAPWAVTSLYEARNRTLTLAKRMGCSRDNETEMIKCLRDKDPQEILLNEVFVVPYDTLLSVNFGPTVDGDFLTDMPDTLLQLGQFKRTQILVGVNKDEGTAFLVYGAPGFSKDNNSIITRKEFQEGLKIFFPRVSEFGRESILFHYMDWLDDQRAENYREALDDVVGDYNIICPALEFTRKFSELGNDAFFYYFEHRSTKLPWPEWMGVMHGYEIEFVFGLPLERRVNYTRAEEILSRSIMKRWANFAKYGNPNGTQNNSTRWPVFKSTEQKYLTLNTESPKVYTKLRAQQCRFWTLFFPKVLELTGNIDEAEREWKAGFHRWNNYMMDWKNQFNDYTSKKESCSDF

[11] = biological target: Acetylcholinesterase (Electrophorus electricus) (UniProt O42275); test: Inhibition of electric eel AChE at 10 uM using acetylthiocholine iodide as substrate preincubated for 30 mins followed by substrate addition and measured every 40 secs for 30 mins by Ellman's method relative to control
Sequence of Acetylcholinesterase (Electrophorus electricus) (O42275 24-633 limits assumed): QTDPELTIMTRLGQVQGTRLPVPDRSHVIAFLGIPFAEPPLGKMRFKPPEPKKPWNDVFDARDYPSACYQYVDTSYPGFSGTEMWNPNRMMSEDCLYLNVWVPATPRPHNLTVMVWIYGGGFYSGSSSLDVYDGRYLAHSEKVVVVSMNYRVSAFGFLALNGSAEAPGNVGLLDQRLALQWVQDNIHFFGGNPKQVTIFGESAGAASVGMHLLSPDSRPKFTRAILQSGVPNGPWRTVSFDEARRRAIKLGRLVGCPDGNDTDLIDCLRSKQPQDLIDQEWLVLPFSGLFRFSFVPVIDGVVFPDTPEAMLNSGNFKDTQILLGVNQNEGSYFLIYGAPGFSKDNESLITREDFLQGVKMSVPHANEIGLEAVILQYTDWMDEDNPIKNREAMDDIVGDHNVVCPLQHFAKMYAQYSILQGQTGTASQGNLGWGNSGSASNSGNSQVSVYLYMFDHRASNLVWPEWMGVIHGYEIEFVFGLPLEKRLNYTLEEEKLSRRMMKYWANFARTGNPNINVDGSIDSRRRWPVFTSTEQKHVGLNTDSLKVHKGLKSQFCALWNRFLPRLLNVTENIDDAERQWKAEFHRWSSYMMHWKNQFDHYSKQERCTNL

[12] = Cytotoxicity against human SH-SY5Y cells assessed as cell viability at 1 mM and measured after 24 hrs by resazurin dye based fluorescence assay relative to control; details: read-out: Activity
D(3) dopamine receptor = D(3) dopamine receptor (Homo sapiens, UniProt P35462); test: Displacement of [3H] spiperone from human D3 dopamine receptor
Sequence of D(3) dopamine receptor (P35462 whole entry): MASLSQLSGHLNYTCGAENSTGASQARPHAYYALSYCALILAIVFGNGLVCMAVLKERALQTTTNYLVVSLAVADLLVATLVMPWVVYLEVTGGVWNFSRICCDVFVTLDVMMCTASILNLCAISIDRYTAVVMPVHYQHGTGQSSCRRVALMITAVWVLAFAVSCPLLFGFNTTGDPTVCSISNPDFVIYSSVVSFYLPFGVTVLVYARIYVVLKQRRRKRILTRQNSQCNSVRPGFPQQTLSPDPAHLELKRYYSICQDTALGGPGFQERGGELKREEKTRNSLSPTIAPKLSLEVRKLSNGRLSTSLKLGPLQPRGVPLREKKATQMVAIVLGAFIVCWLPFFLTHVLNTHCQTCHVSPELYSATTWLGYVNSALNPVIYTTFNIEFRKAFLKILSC

Homo sapiens [13] = species: Homo sapiens; test: Selectivity index, ratio of IC50 for human recombinant MAO-A using kynuramine as substrate preincubated for 30 mins followed by substrate addition to IC50 for human recombinant MAO-B using kynuramine as substrate preincubated for 30 mins followed by substrate addition
D(2) dopamine receptor = D(2) dopamine receptor (Homo sapiens, UniProt P14416); test: Displacement of [3H] spiperone from human D2 dopamine receptor
Sequence of D(2) dopamine receptor (P14416 whole entry): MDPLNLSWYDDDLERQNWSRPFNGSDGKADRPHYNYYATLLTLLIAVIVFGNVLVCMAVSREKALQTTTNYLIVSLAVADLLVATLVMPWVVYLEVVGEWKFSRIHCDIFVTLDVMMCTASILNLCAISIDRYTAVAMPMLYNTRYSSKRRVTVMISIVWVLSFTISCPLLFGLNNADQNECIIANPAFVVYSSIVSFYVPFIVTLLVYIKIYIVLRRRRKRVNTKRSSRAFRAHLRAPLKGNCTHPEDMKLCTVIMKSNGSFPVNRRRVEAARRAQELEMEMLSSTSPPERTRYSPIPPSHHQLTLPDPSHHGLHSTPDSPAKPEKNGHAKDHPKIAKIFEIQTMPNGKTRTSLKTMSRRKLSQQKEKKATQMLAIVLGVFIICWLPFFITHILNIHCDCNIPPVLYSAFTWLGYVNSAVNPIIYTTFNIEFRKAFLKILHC

Histamine H1 receptor = Histamine H1 receptor (Homo sapiens, UniProt P35367); test: Displacement of [3H] pyrilamine from human H1 histamine receptor
Sequence of Histamine H1 receptor (P35367 whole entry): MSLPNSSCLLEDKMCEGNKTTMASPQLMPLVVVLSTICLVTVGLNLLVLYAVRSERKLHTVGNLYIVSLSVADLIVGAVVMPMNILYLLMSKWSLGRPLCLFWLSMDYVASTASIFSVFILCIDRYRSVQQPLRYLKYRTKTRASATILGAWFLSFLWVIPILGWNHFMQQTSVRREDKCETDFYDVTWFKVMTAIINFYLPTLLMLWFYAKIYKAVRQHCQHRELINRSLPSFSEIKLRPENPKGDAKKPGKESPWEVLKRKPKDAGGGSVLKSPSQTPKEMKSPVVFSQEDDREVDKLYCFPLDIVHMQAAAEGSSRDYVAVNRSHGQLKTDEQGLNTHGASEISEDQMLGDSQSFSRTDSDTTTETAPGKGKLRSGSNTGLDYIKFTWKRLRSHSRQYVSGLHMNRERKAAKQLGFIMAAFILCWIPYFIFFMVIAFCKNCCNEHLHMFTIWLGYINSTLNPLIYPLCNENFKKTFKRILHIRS

[14] = biological target: T3, Amine oxidase [flavin-containing] B; test: Inhibition of human recombinant MAO-B using kynuramine as substrate preincubated for 30 mins followed by substrate addition by discontinuous fluorimetric analysis
[15] = biological target: T3, Amine oxidase [flavin-containing] B; test: Irreversible inhibition of human recombinant MAO-B assessed as reduction in enzyme activity at 10 times IC50 using kynuramine as substrate preincubated with compound followed by substrate addition by discontinuous fluorimetric analysis; details: TDE = time-dependent effect
[16] = biological target: T2, Amine oxidase [flavin-containing] A; test: Inhibition of human recombinant MAO-A using kynuramine as substrate preincubated for 30 mins followed by substrate addition by discontinuous fluorimetric analysis
Histamine H4 receptor = Histamine H4 receptor (Homo sapiens, UniProt Q9H3N8); test: Displacement of [3H] histamine from human H4 histamine receptor
Sequence of Histamine H4 receptor (Q9H3N8 whole entry): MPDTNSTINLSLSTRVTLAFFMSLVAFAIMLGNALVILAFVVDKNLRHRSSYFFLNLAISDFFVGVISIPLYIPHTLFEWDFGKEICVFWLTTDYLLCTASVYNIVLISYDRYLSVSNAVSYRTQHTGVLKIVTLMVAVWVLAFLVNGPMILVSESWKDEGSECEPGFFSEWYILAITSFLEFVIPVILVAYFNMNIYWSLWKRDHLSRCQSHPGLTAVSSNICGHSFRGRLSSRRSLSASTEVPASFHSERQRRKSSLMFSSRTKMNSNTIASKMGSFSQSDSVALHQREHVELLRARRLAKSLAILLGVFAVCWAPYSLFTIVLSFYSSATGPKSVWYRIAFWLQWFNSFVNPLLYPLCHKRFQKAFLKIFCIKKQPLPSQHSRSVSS

Row | SMILES | pIC50 [2] | viability at 24 h, 1 µM [3] [%] | pIC50 [4] | pKi (Histamine H3 receptor) | Ki (Histamine H3 receptor) [µM] | Ratio IC50 (Homo sapiens [5]) | pIC50 [6] | viability at 24 h, 10 µM [7] [%] | pIC50 [8] | Ratio IC50 (Homo sapiens [9]) | inhibition [10] [%] | inhibition [11] [%] | also measured
1 | C#CCN[C@@H]1CCc2ccc(OC(=O)N(C)CC)cc21 [LADOSTIGIL] | – | – | – | – | – | – | – | – | – | – | – | – | pIC50 [1]: < 3.00
2 | C#CCNC1CCc2ccc(OCCCN3CCCCC3)cc21 (centres undefined) | < 4.30 | 84 | 5.10 | 8.17 | < 0.01 | > 4.8 | < 4.00 | 100 | 4.98 | > 13 | 47 | 47 | –
3 | C[n+]1ccc(-c2ccccc2)cc1 | – | – | – | – | – | – | – | – | – | – | – | – | viability at 24 h, 1000 µM [12]: 1.8%
4 | C#CCNC1CCc2cc(OCCCN3CCCCC3)ccc21 (centres undefined) | < 5.00 | 89.7 | 6.00 | 8.59 | < 0.01 | > 39 | < 4.00 | 95.6 | 6.59 | > 100 | 32 | 57 | pKi (D(3) dopamine receptor): < 5.00; Ratio IC50 (Homo sapiens [13]): > 95; pKi (D(2) dopamine receptor): < 5.00; pKi (Histamine H1 receptor): < 5.00; pIC50 [14]: 5.98; inhibition (INH) [15]: Tde; pIC50 [16]: < 4.00; pKi (Histamine H4 receptor): < 4.00
